Experimental findings from ChEMBL document CHEMBL1146249, “Antiviral 2,5-disubstituted imidazo[4,5-c]pyridines: further optimization of anti-hepatitis C virus activity” (Bioorg Med Chem Lett, 2007) are described below.

Series [1] is described as follows: Cytotoxicity against MDBK cells. The conditions noted are these: cattle. In kind it is cell-based, Bos taurus.
Series [2] can be described thus: Cytotoxicity against Huh 5-2 cells. The conditions noted are these: human. It is filed as cell-based.
Series [3] is described as follows: Selectivity index, ratio of CC50 for MDBK cells to EC50 for BVDV. In kind it is functional.
Series [4] relates to Bovine viral diarrhea virus 1. Description: Antiviral activity against BVDV in MDBK cells. In kind it is functional, organism-based. The conditions noted are these: Bovine viral diarrhea virus isolates and strains.
The subject of another series is Hepatitis C virus. Nature of the series: Antiviral activity against HCV in Huh 5-2 cells. In kind it is functional, organism-based, Hepacivirus hominis.
Series [5] can be described thus: Selectivity index, ratio of CC50 for Huh 5-2 cells to EC50 for HCV. In kind it is functional.

On to `Fc1ccccc1-c1nc2ccn(CCOc3ccccc3)cc-2n1`, for which the CC50 in series [1] is above 104 µM; in series [2] it was 96 µM. Moreover, the “Ratio CC50/EC50” value is listed as above 371 in series [3] and 2 in series [5]. Besides, the concentration for a half-maximal effect (EC50) in series [4] is 0.28 µM; with Hepatitis C virus, 48 µM.

Regarding `Fc1cccc(-c2nc3ccn(Cc4ccc(OC(F)(F)F)cc4)cc-3n2)c1F`, the CC50 in series [1] is above 100 µM; in series [2], 81 µM. Further, the “Ratio CC50/EC50” value in series [3] is above 500; in series [5], 405. Also, the EC50 (in series [4]; in the series with Hepatitis C virus) was 0.2 µM throughout.

A word on the CC50: it is the concentration that lowers cell viability or growth by half. High values mean lower toxicity to the cells, low ones greater toxicity to the cells. One may read the EC50 as the midpoint of the concentration-response curve.
